Laboratory results from patent publication US7655629B2, “Peptides and their use for the treatment of HIV infections” (priority 2002, dated 2010).
Non-standard residues stand in square brackets, D forms with d. Residues, ends and D or L forms follow the SMILES beside them. Phe(4-F) = N[C@@H](Cc1ccc(F)cc1)C(=O)O; 1Nal = N[C@@H](Cc1cccc2ccccc12)C(=O)O; 4Pal = N[C@@H](Cc1ccncc1)C(=O)O; Cha = N[C@@H](CC1CCCCC1)C(=O)O

Legend:
HIV-1 NL4-3 DTV = details: read-out: IC50 DTV, P4-CCR5 cells, peptide 2 h before infection, readout three days after infection
Method in brief: (§1)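 P4-CCR5 cells (CD4, CCR5, CXCR4, HIV-1 promoter-driven β-galactosidase) pretreated 2 h with peptide, then infected with virus containing 1 ng p24 antigen and incubated overnight. Cells washed and cultured without peptide; three days post-infection infectivity read by chemiluminescent β-galactosidase assay, in quintuplicate.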

X4-tropic HIV-1 NL4-3 = details: read-out: IC50 NL4-3; P4-CCR5 cells, HIV-1 NL4-3, peptide 2 h before infection, readout three days after infection
Method in brief: as §1

For `CC[C@H](C)[C@H](NC(=O)[C@H](C)NC(=O)[C@H](CCC(=O)O)NC(=O)[C@@H](N)CC(C)C)C(=O)N1CCC[C@H]1C(=O)N[C@@H](CCSC)C(=O)N[C@@H](CO)C(=O)N[C@H](C(=O)N1CCC[C@H]1C(=O)N1CCC[C@@H]1C(=O)N[C@@H](CCC(=O)O)C(=O)N[C@H](C(=O)N[C@@H](Cc1ccccc1)C(=O)N[C@@H](Cc1ccccc1)C(=O)N[C@@H](CC(N)=O)C(=O)N[C@@H](CCCCN)C(=O)N1CCC[C@H]1C(=O)N[C@@H](Cc1ccccc1)C(=O)N[C@H](C(=O)N[C@@H](Cc1ccccc1)C(=O)O)C(C)C)C(C)C)[C@@H](C)CC` [VIR-197, LEAIPMSIPpEVFFNKPFVF] (H-LEAIPMSIP[dP]EVFFNKPFVF-OH), the IC50 (HIV-1 NL4-3 DTV) was 1440 nM and the IC50 (X4-tropic HIV-1 NL4-3) was 1270 nM.

Work on `CC[C@H](C)[C@H](NC(=O)[C@H](C)NC(=O)[C@H](CCC(=O)O)NC(=O)[C@@H](N)CC(C)C)C(=O)N1CCC[C@H]1C(=O)N[C@@H](CCSC)C(=O)N[C@@H](CO)C(=O)N[C@H](C(=O)N1CCC[C@H]1C(=O)N1CCC[C@@H]1C(=O)N[C@@H](CCC(=O)O)C(=O)N[C@@H](Cc1ccccc1)C(=O)N[C@@H](CC(C)C)C(=O)N[C@@H](Cc1ccccc1)C(=O)N[C@@H](CC(N)=O)C(=O)N[C@@H](CCCCN)C(=O)N1CCC[C@H]1C(=O)N[C@@H](Cc1ccccc1)C(=O)N[C@H](C(=O)N[C@@H](Cc1ccccc1)C(=O)O)C(C)C)[C@@H](C)CC` [VIR-199, LEAIPMSIPpEFLFNKPFVF] (H-LEAIPMSIP[dP]EFLFNKPFVF-OH) yielded an IC50 (HIV-1 NL4-3 DTV) of 1650 nM and an IC50 (X4-tropic HIV-1 NL4-3) of 2140 nM.

With `CC[C@H](C)[C@H](NC(=O)[C@@H]1CCCN1C(=O)[C@@H](NC(=O)[C@H](C)NC(=O)[C@H](CCC(=O)O)NC(=O)[C@@H](N)CC(C)C)[C@@H](C)CC)C(=O)N[C@@H](CO)C(=O)N[C@H](C(=O)N1CCC[C@H]1C(=O)N1CCC[C@@H]1C(=O)N[C@@H](CCC(=O)O)C(=O)N[C@H](C(=O)N[C@@H](C)C(=O)N[C@@H](Cc1ccccc1)C(=O)N[C@@H](CC(N)=O)C(=O)N[C@@H](CCCCN)C(=O)N1CCC[C@H]1C(=O)N[C@@H](Cc1ccccc1)C(=O)N[C@H](C(=O)N[C@@H](Cc1ccccc1)C(=O)O)C(C)C)C(C)C)[C@@H](C)CC` [VIR-229, LEAIPISIPpEVAFNKPFVF] (H-LEAIPISIP[dP]EVAFNKPFVF-OH) the IC50 (HIV-1 NL4-3 DTV) was 2260 nM and the IC50 (X4-tropic HIV-1 NL4-3) was 1280 nM.

`CC[C@H](C)[C@H](NC(=O)[C@H](CC(=O)O)NC(=O)[C@H](CCC(=O)O)NC(=O)[C@@H](N)CC(C)C)C(=O)N1CCC[C@H]1C(=O)N[C@@H](CCSC)C(=O)N[C@@H](CO)C(=O)N[C@H](C(=O)N1CCC[C@H]1C(=O)N1CCC[C@@H]1C(=O)N[C@@H](CCC(=O)O)C(=O)N[C@H](C(=O)N[C@@H](C)C(=O)N[C@@H](Cc1ccccc1)C(=O)N[C@@H](CC(N)=O)C(=O)N[C@@H](CCCCN)C(=O)N1CCC[C@H]1C(=O)N[C@@H](Cc1ccccc1)C(=O)N[C@H](C(=O)N[C@@H](Cc1ccccc1)C(=O)O)C(C)C)C(C)C)[C@@H](C)CC` [VIR-252, LEDIPMSIPpEVAFNKPFVF] (H-LEDIPMSIP[dP]EVAFNKPFVF-OH) showed an IC50 (HIV-1 NL4-3 DTV) of 1870 nM and an IC50 (X4-tropic HIV-1 NL4-3) of 1750 nM.

`CC[C@H](C)[C@H](NC(=O)[C@H](CCCCN)NC(=O)[C@H](CCC(=O)O)NC(=O)[C@@H](N)CC(C)C)C(=O)N1CCC[C@H]1C(=O)N[C@@H](CCSC)C(=O)N[C@@H](CO)C(=O)N[C@H](C(=O)N1CCC[C@H]1C(=O)N1CCC[C@@H]1C(=O)N[C@@H](CCC(=O)O)C(=O)N[C@H](C(=O)N[C@@H](C)C(=O)N[C@@H](Cc1ccccc1)C(=O)N[C@@H](CC(N)=O)C(=O)N[C@@H](CCCCN)C(=O)N1CCC[C@H]1C(=O)N[C@@H](Cc1ccccc1)C(=O)N[C@H](C(=O)N[C@@H](Cc1ccccc1)C(=O)O)C(C)C)C(C)C)[C@@H](C)CC` [VIR-255, LEKIPMSIPpEVAFNKPFVF] (H-LEKIPMSIP[dP]EVAFNKPFVF-OH) was tested, and the IC50 (HIV-1 NL4-3 DTV) was 1230 nM and the IC50 (X4-tropic HIV-1 NL4-3) was 650 nM.

With `CC[C@H](C)[C@H](NC(=O)[C@H](C)NC(=O)[C@H](CCC(=O)O)NC(=O)[C@@H](N)CC(C)C)C(=O)N1CCC[C@H]1C(=O)N[C@@H](CCSC)C(=O)N[C@@H](CO)C(=O)N[C@H](C(=O)N1CCC[C@H]1C(=O)N1CCC[C@@H]1C(=O)N[C@@H](CCC(=O)O)C(=O)N[C@H](C(=O)N[C@@H](CC1CCCCC1)C(=O)N[C@@H](Cc1ccccc1)C(=O)N[C@@H](CC(N)=O)C(=O)N[C@@H](CCCCN)C(=O)N1CCC[C@H]1C(=O)N[C@@H](Cc1ccccc1)C(=O)N[C@H](C(=O)N[C@@H](Cc1ccccc1)C(=O)O)C(C)C)C(C)C)[C@@H](C)CC` [VIR-257, LEAIPMSIPpEV(cyclohexylalanine)FNKPFVF] (H-LEAIPMSIP[dP]EV[Cha]FNKPFVF-OH) the IC50 (HIV-1 NL4-3 DTV) was 660 nM and the IC50 (X4-tropic HIV-1 NL4-3) was 860 nM.

`CC[C@H](C)[C@H](NC(=O)[C@H](C)NC(=O)[C@H](CCC(=O)O)NC(=O)[C@@H](N)CC(C)C)C(=O)N1CCC[C@H]1C(=O)N[C@@H](CCSC)C(=O)N[C@@H](CO)C(=O)N[C@H](C(=O)N1CCC[C@H]1C(=O)N1CCC[C@@H]1C(=O)N[C@@H](CCC(=O)O)C(=O)N[C@@H](Cc1cccc2ccccc12)C(=O)N[C@@H](C)C(=O)N[C@@H](Cc1ccccc1)C(=O)N[C@@H](CC(N)=O)C(=O)N[C@@H](CCCCN)C(=O)N1CCC[C@H]1C(=O)N[C@@H](Cc1ccccc1)C(=O)N[C@H](C(=O)N[C@@H](Cc1ccccc1)C(=O)O)C(C)C)[C@@H](C)CC` [VIR-258, LEAIPMSIPpE(1-naphthylalanine)AFNKPFVF] (H-LEAIPMSIP[dP]E[1Nal]AFNKPFVF-OH) gave an IC50 (HIV-1 NL4-3 DTV) of 620 nM and an IC50 (X4-tropic HIV-1 NL4-3) of 640 nM.

In the case of `CC[C@H](C)[C@H](NC(=O)[C@H](C)NC(=O)[C@H](CCC(=O)O)NC(=O)[C@@H](N)CC(C)C)C(=O)N1CCC[C@H]1C(=O)N[C@@H](CCSC)C(=O)N[C@@H](CO)C(=O)N[C@H](C(=O)N1CCC[C@H]1C(=O)N1CCC[C@@H]1C(=O)N[C@@H](CCC(=O)O)C(=O)N[C@@H](Cc1ccc(F)cc1)C(=O)N[C@@H](C)C(=O)N[C@@H](Cc1ccccc1)C(=O)N[C@@H](CC(N)=O)C(=O)N[C@@H](CCCCN)C(=O)N1CCC[C@H]1C(=O)N[C@@H](Cc1ccccc1)C(=O)N[C@H](C(=O)N[C@@H](Cc1ccccc1)C(=O)O)C(C)C)[C@@H](C)CC` [VIR-259, LEAIPMSIPpE(p-fluorophenylalanine)AFNKPFVF] (H-LEAIPMSIP[dP]E[Phe(4-F)]AFNKPFVF-OH), the IC50 (HIV-1 NL4-3 DTV) is reported as 1030 nM and the IC50 (X4-tropic HIV-1 NL4-3) is reported as 860 nM.

Work on `CC[C@H](C)[C@H](NC(=O)[C@H](C)NC(=O)[C@H](CCC(=O)O)NC(=O)[C@@H](N)CC(C)C)C(=O)N1CCC[C@H]1C(=O)N[C@@H](CCSC)C(=O)N[C@@H](CO)C(=O)N[C@H](C(=O)N1CCC[C@H]1C(=O)N1CCC[C@@H]1C(=O)N[C@@H](CCC(=O)O)C(=O)N[C@H](C(=O)N[C@@H](Cc1ccncc1)C(=O)N[C@@H](Cc1ccccc1)C(=O)N[C@@H](CC(N)=O)C(=O)N[C@@H](CCCCN)C(=O)N1CCC[C@H]1C(=O)N[C@@H](Cc1ccccc1)C(=O)N[C@H](C(=O)N[C@@H](Cc1ccccc1)C(=O)O)C(C)C)C(C)C)[C@@H](C)CC` [VIR-260, LEAIPMSIPpEV(4-pyridylalanine)FNKPFVF] (H-LEAIPMSIP[dP]EV[4Pal]FNKPFVF-OH) yielded an IC50 (HIV-1 NL4-3 DTV) of 2380 nM and an IC50 (X4-tropic HIV-1 NL4-3) of 2150 nM.
